Assay results as given in patent US20070208087A1, “Compounds, compositions and methods for the treatment of inflammatory diseases” (priority 2001, published 2007).
Values joined by “and” are separate entries in the source; they are usually repeats but may differ in a detail not shown here. Equal entries are not always repeated. Where two headings read alike, the source gives them in different places.

What was measured:
Type in all cases: cell-based
[1] = test system: TNF-α release from microglia; assay: TNF-α release from LPS/IFNγ stimulated microglia, TNF-α ELISA (Example 11); conditions: for % inhibition: individual replicates; for inhibition at 50 µM: Microglia; for TNF-α ELISA raw reading (not NO; the printed μM unit is unsupported): 3 replicates
Description: Also, bis- and tris-dihydroxyaryl compound's ability to inhibit NO release strongly supports their interference with the inflammatory cascade and utlimately inhibition of inflammation. Microglia cells were plated at 1×10^5 cells/ml into 96 well plates. At day three, they were treated with 50 μM bis- and tris-dihydroxyaryl compound for 1 hour and then exposed to 10 μg/ml LPS+10 ng/ml IFNγ for 24 hours. 10 μl of media was removed and stored at −80° until TNF-α ELISA assays were performed. Samples were diluted 1:50 before running the TNF-α ELISA (kit commercially available from Sigma).

[2] = test system: EOC 13.31 microglial cells; assay: NO release inhibition screen in LPS/IFNγ stimulated microglia, Griess reaction at 48 hours (Example 7); conditions: for μM NO release Avg / % inhibition / inhibition at 50 µM: 50 uM + 10 μg/ml LPS/10 ng/ml IFNγ, 48 hours; for % inhibition: 50 µM; for inhibition at 50 µM: Microglia, 48 h
Description: In this experiment, additional bis- and tris-dihydroxyaryl compounds were screened for their ability to inhibit nitric oxide release from microglial cells. Microglial cells stimulated with LPS/IFNγ release nitric oxide. […] This is a continuation of screening experiments. EOC 13.31 microglial cells were plated into 96 well plates. At 24 hours and at confluency, cells were treated with 10 μg/ml LPS/10 ng/ml IFNγ+50 uM bis- and tris-dihydroxyaryl compounds.

microglia = assay: Ranking of NO release inhibition (Example 12); conditions: Microglia, ranking table
From the text: The bis- and tris-dihydroxyaryl compounds were ranked in order of effectiveness for the inhibition of NO release as set out in Table 8.

[3] = test system: EOC 13.31 microglia cells; assay: Inhibition of NO release from microglia following 24 hours pretreatment (Example 10); conditions: for inhibition at 50 µM: Microglia
Description: This experiment was designed to determine if pretreatment for 24 hours with bis- and tris-dihydroxyaryl compounds changes NO inhibition previously observed with concurrent exposure of bis- and tris-dihydroxyaryl compounds. […] This study seeks to determine if pretreatment with bis- and tris-dihydroxyaryl compounds increases NO release inhibition. EOC 13.31 microglia cells were plated at 1×10^6 cells/ml in 96 well plates. After 48 hours, confluent cells were exposed to 50 μM compound (stock 10 mM in DMSO) prepared in fresh cell culture media. After 24 hours, 10 μg/ml LPS and 10 ng/ml IFNγ was added to wells directly without a media change. Cells were incubated for a further 48 hours and nitric oxide release was measured using the Griess Reaction.

[4] = test system: EOC 13.31 microglia cells; assay: NO release inhibition in LPS/IFNγ stimulated microglia, concurrent treatment, Griess reaction at 24 hours (Example 6); conditions: 24 hours; for NO release, Avg: 50 μM; for inhibition at 50 µM: Microglia
Description: The purpose of this experiment was to screen compounds 3, 4, 21, 26, 51, 52, 66, and 78 for their ability to inhibit Nitric oxide release from microglia. […] EOC 13.31 microglia cells were plated into 96 well plates for 24 hours. Confluent cells were treated with 50 μM of the bis- and tris-dihydroxyaryl compounds either with or without stimulation at 1 pg/ml LPS, and 1 ng/ml IFNγ. NO release was measured at 24 hours using the Griess reaction which is a spectrophotometric measure of NO release (reagents from Promega).

[5] = 50 uM compound, TNF-α release, 10 ug LPS and 10 ng IFNγ, 24 hours, 50 µM
[6] = single replicates, read-out: % inhibition
[7] = 50 uM compound, TNF-α release, 10 ug LPS and 10 ng IFNγ, 24 hours
[8] = 50 uM compound, 10 ug LPS and 10 ng IFNγ, 24 hours
[9] = 50 μM pretreatment, read-out: inhibition of NO release following pretreatment
[10] = 50 uM pretreatment 24 hours, then LPS/IFNγ 48 hours, single replicates
[11] = 50 uM pretreatment 24 hours, then LPS/IFNγ 48 hours, read-out: Avg % Inhibition
[12] = 50 uM pretreatment 24 hours, then LPS/IFNγ 48 hours, single replicates, read-out: % inhibition

SMILES | % inhibition [1, 5] | μM NO release Avg [2] [µM] | % inhibition ([2]; single replicates) | inhibition at 50 µM ([2]; read-out: Avg. % Inhibition) [%] | inhibition at 50 µM (microglia) [%] | Avg % Inhibition [1, 7] [%] | TNF-α ELISA raw reading (not NO; the printed μM unit is unsupported) [1, 8] | further results
Oc1ccc(CN[C@@H]2CCCC[C@H]2NCc2ccc(O)c(O)c2)cc1O (relative stereo) [Compound 12, N,N′-bis(3,4-dihydroxybenzyl)-trans-1,2-diaminocyclohexane] | 15.81% and 25.24% and 10.54% | 18.976 | 26.72% and 33.23% | 31.6 | 32 |  |  | inhibition at 50 µM ([1]; 24 h, 50 uM compound, TNF-α release, 10 ug LPS and 10 ng IFNγ, 24 hours, read-out: Avg % Inhibition): 17.2%; inhibition of NO release, in words ([2]; 50 uM, LPS/IFNγ stimulated microglia): effective inhibitors of NO release; inhibition at 50 µM [2, 6]: 34.9%
Oc1ccc(Cc2ccc(O)c(O)c2)cc1O [Compound 3-2] | 28.11% and 32.65% and 27.48% |  |  |  |  | 29.41 | 0.593 µM and 0.627 µM and 0.623 µM | 
Oc1ccc(CCc2ccc(O)c(O)c2)cc1O [Compound 4-3] | 88.39% and 91.14% and 90.14% |  |  |  |  | 89.89 | 0.177 µM and 0.185 µM and 0.199 µM | inhibition of TNF-α release ([1]; 50 μM for 1 hour, then 10 μg/ml LPS + 10 ng/ml IFNγ for 24 hours): 89%
Cc1nc(-c2ccc(O)c(O)c2)cc(-c2ccc(O)c(O)c2)c1C#N [Compound 8, 4,6-bis(3,4-dihydroxyphenyl)-3-cyano-2-methylpyridine] |  | 25.265 | 8.03% and 2.30% and 9.14% | 6.49 | 92 |  |  | 
Oc1ccc(CN2CCN(Cc3ccc(O)c(O)c3)CC2)cc1O [Compound 9, 1,4-bis(3,4-dihydroxybenzyl)piperazine] |  | 26.299 | −0.57% (2×) and 9.14% | 2.66 | 3 |  |  | 
CN1C2CCC1C(Cc1ccc(O)c(O)c1)C(=O)C2Cc1ccc(O)c(O)c1 (centres unmarked) [Compound 19, 2,4-bis(3,4-dihydroxybenzyl)-3-tropinone] |  | 25.828 | 5.75% and 3.45% | 4.41 | 4 |  |  | inhibition at 50 µM [2, 6]: 4.02%; inhibition at 50 µM [3, 9]: > 75%
CN1C2CCC1C(Cc1ccc(O)c(O)c1)C(=O)C2Cc1ccc(O)c(O)c1 (centres unmarked) [Compound 19-2] | 7.78% and 8.44% and 12.05% |  |  |  |  | 9.42 | 0.730 µM and 0.708 µM and 0.734 µM | Avg % Inhibition ([3]; 50 uM pretreatment 24 hours, then LPS/IFNγ 48 hours): 82.93%; % inhibition [3, 10]: 73.11% and 91.80% and 83.87%; OD values (printed under head μM NO release) [3, 10]: 0.135 and 0.161 and 0.195; μM NO release [3, 10]: 1.620 µM and 3.188 µM and 5.313 µM
O=C(NCc1ccc(O)c(O)c1)C(=Cc1ccc(O)c(O)c1)NC(=O)c1ccc(O)c(O)c1 [Compound 21-2] | −25.92% and −23.45% and −20.16% |  |  |  |  | −23.18 | 0.924 µM and 0.904 µM and 0.939 µM | 
O=C(Nc1ccc(O)c(O)c1)c1ccc(O)c(O)c1 [Compound 51, 3,4-dihydroxybenzoic acid 3,4-dihydroxyanilide] |  |  |  |  |  |  |  | NO release, Avg ([4]; Compound + LPS/IFNγ): 20.6633 µM; NO release, Avg ([4]; Compound Only (without LPS/IFNγ)): 1.2500 µM; inhibition at 50 µM ([4]; Compound + LPS/IFNγ, read-out: % inhibition of NO release): -11%; inhibition at 50 µM ([4]; Table 2 summary, LPS/IFNγ, read-out: % Inhibition (summary of inhibition of NO release)): -11%; % inhibition [3, 10]: 47.81% and 59.20%; inhibition at 50 µM [3, 11]: 56%; inhibition at 50 µM [3, 12]: 61.1%
O=C(Nc1ccc(O)c(O)c1)c1ccc(O)c(O)c1 [Compound 51-1] | −17.57% and −12.94% and −13.42% |  |  |  |  |  | 0.880 µM and 0.883 µM and 0.909 µM | Avg % Inhibition [1, 5]: −14.64%
O=C(Nc1ccc(O)c(O)c1)c1ccc(O)c(O)c1 [Compound 51-4] | −20.13% and −17.25% and −11.34% |  |  |  |  |  | 0.907 µM and 0.870 µM and 0.925 µM | Avg % Inhibition [1, 5]: −16.24%
O=C(CCC(=O)Nc1ccc(O)c(O)c1)Nc1ccc(O)c(O)c1 [Compound 66-2] | −14.08% and −17.70% and −9.32% |  |  |  |  | −13.70 | 0.889 µM and 0.838 µM and 0.867 µM | 
O=C(Nc1ccc(O)c(O)c1)Nc1ccc(O)c(O)c1 [Compound 76, 1,3-bis(3,4-dihydroxyphenyl)urea] |  | 23.745 | 11.52% and 12.60% | 14.4 | 14 |  |  | inhibition at 50 µM [2, 6]: 19.1%; % inhibition [3, 10]: 75.64% and 78.81%; inhibition at 50 µM [3, 11]: 76.3%; inhibition at 50 µM [3, 12]: 74.4%; inhibition at 50 µM [3, 9]: > 75%
O=C(Nc1ccc(O)c(O)c1)Nc1ccc(O)c(O)c1 [Compound 76-2] | −8.66% and −11.12% and −9.64% |  |  |  |  | −9.81 | 0.849 µM and 0.840 µM and 0.834 µM | 
O=C(NCc1ccc(O)c(O)c1)Nc1ccc(O)c(O)c1 [Compound 77, 1-(3,4-dihydroxyphenyl)-3-(3,4-dihydroxybenzyl)urea] |  | 24.398 | 9.89% | 12.1 | 12 |  |  | inhibition at 50 µM [2, 6]: 14.2%; % inhibition [3, 10]: 99.39%; inhibition at 50 µM [3, 11]: 96.8%; inhibition at 50 µM [3, 12]: 91.8%; inhibition at 50 µM [3, 9]: > 75%
O=C(NCc1ccc(O)c(O)c1)Nc1ccc(O)c(O)c1 [Compound 77-1] | 4.66% and 4.16% and −1.10% |  |  |  |  | 2.58 | 0.756 µM and 0.788 µM and 0.753 µM | 
C[C@@H]1C[C@H]2[C@@H]3CCC4=CC(=O)C=C[C@]4(C)[C@@]3(F)[C@@H](O)C[C@]2(C)[C@@]1(O)C(=O)CO [Dexamethasone, reference compound] |  |  |  |  |  |  |  | inhibition at 50 µM ([1]; 50 μM for 1 hour, then 10 μg/ml LPS + 10 ng/ml IFNγ for 24 hours, read-out: inhibition of TNF-α release): 72.4%
